Tests used:
[1] = system: Ps. Aeroqonaza; test: Anti-microbial screening, agar dilution; type: cell-based, Ps. aeruginosa; conditions: after 10, 20, 40 and 60 minutes at all dilutions, 1:100, 1:200, 1:400, and 1:800
Experimental: (§1) The antibacterial properties of the present compound were studied by the method of agar dilution. Test solutions of the compound were prepared in a concentration of 1% using dimethylformamide as a solvent then they are diluted in physiological solution to obtain the final experimental dilutions 1:100, 1:200, 1:400, and 1:800. The effect of these substances were compared with furacillin in a controllable study. The testing microbes used were gram positive bacteria St. Aereus, gram negative bacteria E. Coli, Ps. aeruginosa and Candida albicans fungi were taken. The experiments used for this survey were meat-pentonlu agar (EPA) for cultivation of bacteria and Saburo environment for fungi. Each experiment used 1 ml of test solution on each plate 500 min. Add 2 drops of emulsified with microbes feel. All experimental samples were taken from the agar after 10, 20, 40, and 60 minutes in the environment on the basis of Patrk planted. Bacteria were cultivated at a temperature of 37° C. for 1 day and the mushroom was kept in a thermostat for […] at a temperature of 28° C. Then results were checked.

[2] = system: St. Aereus; test: Anti-microbial screening, agar dilution; type: cell-based; conditions: after 10, 20, 40 and 60 minutes at all dilutions, 1:100, 1:200, 1:400, and 1:800
Experimental: as §1

[3] = system: E. Coli; test: Anti-microbial screening, agar dilution; type: cell-based; conditions: after 10, 20, 40 and 60 minutes at all dilutions, 1:100, 1:200, 1:400, and 1:800
Experimental: as §1

[4] = system: Candida albicans; test: Anti-microbial screening, agar dilution; type: cell-based; conditions: after 10, 20, 40 and 60 minutes at all dilutions, 1:100, 1:200, 1:400, and 1:800
Experimental: as §1

melting point: 145 to 147 °C
SMILES: CN(C)CCCn1c(-c2cccnc2)nc(-c2ccccc2)c1-c1ccccc1 [3-(4,5-Diphenyl-2-(pyridin-3-yl)-1H-imidazol-1-yl)-N,N-dimethylpropan-1-amine]
inhibition activity, Ps. aeruginosa [1]: highest inhibition activity | inhibition activity, St. Aereus [2]: highest inhibition activity | inhibition activity, E. Coli [3]: highest inhibition activity | inhibition activity, Candida albicans [4]: highest inhibition activity

From patent publication US11958829B1, “3-(4,5-diphenyl-2-(pyridin-3-YL)-1H-imidazol-1-YL)-N,N-dimethylpopan-1-amine as an antimicrobial compound” (KING FAISAL UNIVERSITY, priority 2023, dated 2024)
